Results: publication PMC7225226, “Fluorescence labeling of a NaV1.7-targeted peptide for near-infrared nerve visualization” (EJNMMI Research, 2020)
Values joined by “and” are separate entries in the source; they are usually repeats but may differ in a detail not shown here. Equal values may be shown once.

Tests used:
[1] = molecular target: T1, hNaV1.3 (Homo sapiens, UniProt Q9NY46); test: Whole-cell patch-clamp, HEK293 cells stably expressing hNaV1.3; assay type: cell-based; settings: QPatch 16x automated whole-cell patch-clamp, holding potential -60 mV, five concentrations (2 nM to 10 μM), 0.1% BSA, pH 7.4, ~22 °C; each point average of 3–11 cells
T1 construct: host or cells: HEK293
Experimental: (§1) HEK293 cells stably expressing the human NaV channel β1 subunit (hNaVβ1) in combination with the α subunit hNaV1.1, hNaV1.2, hNaV1.3, hNaV1.4, hNaV1.5, hNaV1.6, or hNaV1.7 (Scottish Biomedical, Glasgow, UK) were cultured in DMEM/F-12 media (1:1), supplemented with 10% fetal bovine serum, […] geneticin, and […] non-essential amino acids (all reagents from Invitrogen) at 37 °C and in 5% CO2.
(§2) Whole-cell patch-clamp experiments were performed at room temperature using a QPatch 16x automated electrophysiology platform (Sophion Bioscience, Denmark) using 16-channel planar patch-chip plates (QPlates) with a patch-hole diameter of 1 μm and resistance of 2 MΩ. Whole-cell currents were filtered at 5 kHz (8-pole Bessel) and digitized at 25 kHz. A P4 online leak-subtraction protocol was used with non-leak-subtracted currents acquired in parallel. The extracellular solution was 2 mM CaCl2, 1 mM MgCl2, 10 mM HEPES, 4 mM KCl, and 145 mM NaCl at pH 7.4, and the intracellular solution was 140 mM CsF, 1 mM/5 mM EGTA/CsOH, 10 mM HEPES, and 10 mM NaCl at pH 7.3. Hs1a-FL were dissolved in extracellular solution with 0.1% bovine serum albumin (BSA). Concentration-response data were obtained using five concentrations of peptide (2 nM to 10 μM). […] IC50 values were determined from non-linear regression of concentration-response data using GraphPad Prism.

[2] = molecular target: T2, hNaV1.2 (Homo sapiens, UniProt Q99250); test: Whole-cell patch-clamp, HEK293 cells stably expressing hNaV1.2; assay type: cell-based; settings: QPatch 16x automated whole-cell patch-clamp, holding potential -65 mV, five concentrations (2 nM to 10 μM), 0.1% BSA, pH 7.4, ~22 °C; each point average of 3–11 cells
T2 construct: host or cells: HEK293
Experimental: as §1, §2

[3] = molecular target: T3, hNaV1.5 (Homo sapiens, UniProt Q14524); test: Whole-cell patch-clamp, HEK293 cells stably expressing hNaV1.5; assay type: cell-based
T3 construct: host or cells: HEK293
Experimental: as §1, §2

[4] = system: neuronal sodium channels; test: Affinity for neuronal sodium channels (summary statement); assay type: cell-based, human; settings: automated patch-clamp, HEK293 cells
Experimental: as §1, §2

[5] = molecular target: T4, hNaV1.4 (Homo sapiens, UniProt P35499); test: Whole-cell patch-clamp, HEK293 cells stably expressing hNaV1.4; assay type: cell-based
T4 construct: host or cells: HEK293
Experimental: as §1, §2

[6] = molecular target: T5, hNaV1.1 (Homo sapiens, UniProt P35498); test: Whole-cell patch-clamp, HEK293 cells stably expressing hNaV1.1; assay type: cell-based; settings: QPatch 16x automated whole-cell patch-clamp, holding potential -60 mV, five concentrations (2 nM to 10 μM), 0.1% BSA, pH 7.4, ~22 °C; each point average of 3–11 cells
T5 construct: host or cells: HEK293
Experimental: as §1, §2

[7] = Ex vivo epifluorescence biodistribution in organs; design: species or system mouse; settings: 30 min post-injection
Experimental: (§3) Female athymic nude mice (4–8 weeks old, athymic-nude (outbred) (stock#:088; Envigo, USA) were allowed to acclimatize at the MSKCC vivarium for 1 week with ad libitum food and water prior to the experimental procedure. For imaging experiments, animals were sacrificed 30 min post-tail vein injection of Hs1a-FL, Hs1a/Hs1a-FL, or PBS. All animal experiments were performed in accordance with institutional guidelines and approved by the MSKCC Institutional Animal Care and Use Committee, following the NIH guidelines for animal welfare.
(§4) One group of animals was intravenously injected with Hs1a-FL (4 nmol, 45 μM of Hs1a-FL in 100 μL of PBS, n = 3). A second group of animals was injected with Hs1a and Hs1a-FL (Hs1a-FL, 45 μM, 4 nmol and Hs1a, 120 μM, 12 nmol in 100 μL PBS, n = 3) or PBS (n = 3). Animals were sacrificed 30 min post-injection and epifluorescence images obtained. Epifluorescence images of the right sciatic nerve (RSN) and left sciatic nerve (LSN) were obtained in situ from all the mice in the study. Epifluorescence images of the biodistribution included RSN, LSN, muscle, heart, kidney, liver, and brain and were acquired with an IVIS Spectrum imaging system (PerkinElmer) using a predetermined filter set (excitation = 710/45 nm, emission = 800–820 nm). Autofluorescence was removed through spectral unmixing. Semiquantitative analysis of the Hs1a-FL signal was conducted by measuring the average radiant efficiency (in units of [p/s/cm^2/sr]/[μW/cm^2]) in regions of interest (ROIs) that were placed on all resected nerves and as well in all organs from the biodistribution under white light guidance.
Statistical analyses were performed using GraphPad Prism 8. Unless otherwise stated, data points represent mean values, and error bars represent standard deviations of biological replicates. All p values were calculated using an unpaired t test. Statistical significance was considered for p values < 0.05 and as follows: ns = not significant, *p < 0.05, **p < 0.01, ***p < 0.001.

[8] = system: mouse sciatic nerve; test: Epifluorescence imaging of resected sciatic nerves after intravenous injection; assay type: in vivo; settings: 30 min post-injection
Experimental: as §3
as §4, with “Autofluorescence was removed through spectral unmixing. Semiquantitative analysis of the Hs1a-FL signal was conducted by measuring the average radiant efficiency (in units of [p/s/cm^2/sr]/[μW/cm^2]) in regions of interest (ROIs) that were placed on all resected nerves and as well in all organs from the biodistribution under white light guidance.” left out
(§5) Statistical analyses were performed using GraphPad Prism 8. […] All p values were calculated using an unpaired t test. […]

[9] = system: mouse sciatic nerve (NaV1.7); test: Confocal microscopy of sciatic nerve after intravenous injection; assay type: in vivo; settings: i.v. Hs1a-FL 4 nmol (45 μM in 100 μL PBS), with or without Hs1a 12 nmol (120 μM, 3-fold molar excess); 30 min post-injection; athymic nude mice
Experimental: as §3
(§6) For the confocal microscopy experiments, 5 μm cryosections of sciatic nerve tissues embedded in optimal cutting temperature compound (OCT) were used to determine the distribution and localization of Hs1a-FL from mice previously injected with the fluorescent agent Hs1a-FL (4 nmol, 45 μM of Hs1a-FL in 100 μL of PBS), the blocking solution Hs1a/Hs1a-FL (Hs1a-FL, 45 μM, 4 nmol and Hs1a 120 μM, 12 nmol in 100 μL PBS), or 100 μL of PBS. These resected nerves were incubated with Hoechst 33342 (20 μM, 1 nmol in 50 μL of PBS) to counterstain nuclei, which were subsequently embedded in Mowiol mounting medium. Fresh tissues were counterstained with Hoechst 33342 (20 μM, 1 nmol in 50 μL of PBS) and samples placed directly on a microscope slide for detection of the fluorescence signal of the fluorescent peptide.

[10] = system: NaV1.7; test: Binding to NaV1.7 in vivo post-intravenous injection, blocked by excess unlabeled Hs1a; design: species or system mouse
Experimental: as §3
as §6, with “peptide. […]” for “peptide.”

[11] = system: nerve and muscle; test: Nerve-to-muscle comparison, epifluorescence; assay type: in vivo, mouse
Experimental: as §3
as §4, with “Autofluorescence was removed through spectral unmixing. Semiquantitative analysis of the Hs1a-FL signal was conducted by measuring the average radiant efficiency (in units of [p/s/cm^2/sr]/[μW/cm^2]) in regions of interest (ROIs) that were placed on all resected nerves and as well in all organs from the biodistribution under white light guidance.” left out
as §5

[12] = at concentrations up to 3 μM, automated patch-clamp

T3 sequence (Q14524 whole entry): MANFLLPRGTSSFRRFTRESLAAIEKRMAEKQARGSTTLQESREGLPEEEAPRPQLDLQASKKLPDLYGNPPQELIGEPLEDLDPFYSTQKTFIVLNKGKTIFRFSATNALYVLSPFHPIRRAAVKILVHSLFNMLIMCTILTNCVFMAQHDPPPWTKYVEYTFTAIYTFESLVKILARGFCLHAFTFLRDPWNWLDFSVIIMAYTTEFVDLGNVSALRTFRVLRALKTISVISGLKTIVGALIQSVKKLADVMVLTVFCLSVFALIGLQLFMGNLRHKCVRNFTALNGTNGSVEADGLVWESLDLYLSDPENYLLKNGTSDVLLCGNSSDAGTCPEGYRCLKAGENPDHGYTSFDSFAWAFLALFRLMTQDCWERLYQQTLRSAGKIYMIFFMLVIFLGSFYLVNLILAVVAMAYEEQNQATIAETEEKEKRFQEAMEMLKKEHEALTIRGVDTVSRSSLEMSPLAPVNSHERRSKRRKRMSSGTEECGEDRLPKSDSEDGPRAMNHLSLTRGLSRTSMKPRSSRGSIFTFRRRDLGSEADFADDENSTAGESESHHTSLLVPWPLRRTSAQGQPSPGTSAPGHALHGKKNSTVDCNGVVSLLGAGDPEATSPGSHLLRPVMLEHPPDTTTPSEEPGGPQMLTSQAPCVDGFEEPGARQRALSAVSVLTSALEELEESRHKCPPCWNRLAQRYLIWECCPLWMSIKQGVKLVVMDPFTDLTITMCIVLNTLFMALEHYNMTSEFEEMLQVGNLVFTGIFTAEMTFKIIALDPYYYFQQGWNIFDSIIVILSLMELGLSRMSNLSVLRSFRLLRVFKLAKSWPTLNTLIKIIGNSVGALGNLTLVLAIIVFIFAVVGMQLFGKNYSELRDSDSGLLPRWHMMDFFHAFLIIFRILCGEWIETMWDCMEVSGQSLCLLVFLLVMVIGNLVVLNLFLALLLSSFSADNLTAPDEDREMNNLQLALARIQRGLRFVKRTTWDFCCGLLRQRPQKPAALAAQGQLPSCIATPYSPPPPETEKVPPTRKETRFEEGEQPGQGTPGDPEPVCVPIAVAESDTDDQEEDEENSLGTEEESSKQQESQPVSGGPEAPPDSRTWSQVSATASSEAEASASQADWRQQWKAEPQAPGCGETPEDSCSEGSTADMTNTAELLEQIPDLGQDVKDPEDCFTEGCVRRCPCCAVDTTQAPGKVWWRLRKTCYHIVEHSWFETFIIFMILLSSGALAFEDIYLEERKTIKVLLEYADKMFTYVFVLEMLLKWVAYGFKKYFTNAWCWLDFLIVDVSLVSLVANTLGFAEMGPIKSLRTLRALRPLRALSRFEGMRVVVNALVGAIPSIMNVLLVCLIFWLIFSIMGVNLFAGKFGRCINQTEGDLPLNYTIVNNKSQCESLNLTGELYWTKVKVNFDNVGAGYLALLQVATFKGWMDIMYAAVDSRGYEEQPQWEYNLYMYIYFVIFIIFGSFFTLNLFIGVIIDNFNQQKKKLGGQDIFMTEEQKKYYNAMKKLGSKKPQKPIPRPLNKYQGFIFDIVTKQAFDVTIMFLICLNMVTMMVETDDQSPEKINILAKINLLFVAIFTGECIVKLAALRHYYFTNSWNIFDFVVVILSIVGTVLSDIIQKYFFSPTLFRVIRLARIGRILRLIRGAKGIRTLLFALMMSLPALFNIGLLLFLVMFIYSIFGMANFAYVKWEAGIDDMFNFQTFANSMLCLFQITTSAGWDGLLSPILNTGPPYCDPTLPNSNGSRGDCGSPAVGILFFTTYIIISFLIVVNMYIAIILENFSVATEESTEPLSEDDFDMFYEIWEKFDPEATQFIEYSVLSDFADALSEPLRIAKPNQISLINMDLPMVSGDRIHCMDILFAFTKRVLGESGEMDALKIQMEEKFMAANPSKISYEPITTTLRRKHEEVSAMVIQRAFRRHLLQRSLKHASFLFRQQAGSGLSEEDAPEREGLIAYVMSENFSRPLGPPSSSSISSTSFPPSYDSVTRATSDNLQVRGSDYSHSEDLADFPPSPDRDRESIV
T4 sequence (Q07699 19-218): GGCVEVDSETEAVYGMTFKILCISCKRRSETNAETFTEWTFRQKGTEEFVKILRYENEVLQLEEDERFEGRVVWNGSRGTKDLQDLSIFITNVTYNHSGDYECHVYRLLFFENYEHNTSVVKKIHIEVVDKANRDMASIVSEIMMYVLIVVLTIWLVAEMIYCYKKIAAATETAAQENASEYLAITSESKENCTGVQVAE
T4 sequence (P35499 whole entry): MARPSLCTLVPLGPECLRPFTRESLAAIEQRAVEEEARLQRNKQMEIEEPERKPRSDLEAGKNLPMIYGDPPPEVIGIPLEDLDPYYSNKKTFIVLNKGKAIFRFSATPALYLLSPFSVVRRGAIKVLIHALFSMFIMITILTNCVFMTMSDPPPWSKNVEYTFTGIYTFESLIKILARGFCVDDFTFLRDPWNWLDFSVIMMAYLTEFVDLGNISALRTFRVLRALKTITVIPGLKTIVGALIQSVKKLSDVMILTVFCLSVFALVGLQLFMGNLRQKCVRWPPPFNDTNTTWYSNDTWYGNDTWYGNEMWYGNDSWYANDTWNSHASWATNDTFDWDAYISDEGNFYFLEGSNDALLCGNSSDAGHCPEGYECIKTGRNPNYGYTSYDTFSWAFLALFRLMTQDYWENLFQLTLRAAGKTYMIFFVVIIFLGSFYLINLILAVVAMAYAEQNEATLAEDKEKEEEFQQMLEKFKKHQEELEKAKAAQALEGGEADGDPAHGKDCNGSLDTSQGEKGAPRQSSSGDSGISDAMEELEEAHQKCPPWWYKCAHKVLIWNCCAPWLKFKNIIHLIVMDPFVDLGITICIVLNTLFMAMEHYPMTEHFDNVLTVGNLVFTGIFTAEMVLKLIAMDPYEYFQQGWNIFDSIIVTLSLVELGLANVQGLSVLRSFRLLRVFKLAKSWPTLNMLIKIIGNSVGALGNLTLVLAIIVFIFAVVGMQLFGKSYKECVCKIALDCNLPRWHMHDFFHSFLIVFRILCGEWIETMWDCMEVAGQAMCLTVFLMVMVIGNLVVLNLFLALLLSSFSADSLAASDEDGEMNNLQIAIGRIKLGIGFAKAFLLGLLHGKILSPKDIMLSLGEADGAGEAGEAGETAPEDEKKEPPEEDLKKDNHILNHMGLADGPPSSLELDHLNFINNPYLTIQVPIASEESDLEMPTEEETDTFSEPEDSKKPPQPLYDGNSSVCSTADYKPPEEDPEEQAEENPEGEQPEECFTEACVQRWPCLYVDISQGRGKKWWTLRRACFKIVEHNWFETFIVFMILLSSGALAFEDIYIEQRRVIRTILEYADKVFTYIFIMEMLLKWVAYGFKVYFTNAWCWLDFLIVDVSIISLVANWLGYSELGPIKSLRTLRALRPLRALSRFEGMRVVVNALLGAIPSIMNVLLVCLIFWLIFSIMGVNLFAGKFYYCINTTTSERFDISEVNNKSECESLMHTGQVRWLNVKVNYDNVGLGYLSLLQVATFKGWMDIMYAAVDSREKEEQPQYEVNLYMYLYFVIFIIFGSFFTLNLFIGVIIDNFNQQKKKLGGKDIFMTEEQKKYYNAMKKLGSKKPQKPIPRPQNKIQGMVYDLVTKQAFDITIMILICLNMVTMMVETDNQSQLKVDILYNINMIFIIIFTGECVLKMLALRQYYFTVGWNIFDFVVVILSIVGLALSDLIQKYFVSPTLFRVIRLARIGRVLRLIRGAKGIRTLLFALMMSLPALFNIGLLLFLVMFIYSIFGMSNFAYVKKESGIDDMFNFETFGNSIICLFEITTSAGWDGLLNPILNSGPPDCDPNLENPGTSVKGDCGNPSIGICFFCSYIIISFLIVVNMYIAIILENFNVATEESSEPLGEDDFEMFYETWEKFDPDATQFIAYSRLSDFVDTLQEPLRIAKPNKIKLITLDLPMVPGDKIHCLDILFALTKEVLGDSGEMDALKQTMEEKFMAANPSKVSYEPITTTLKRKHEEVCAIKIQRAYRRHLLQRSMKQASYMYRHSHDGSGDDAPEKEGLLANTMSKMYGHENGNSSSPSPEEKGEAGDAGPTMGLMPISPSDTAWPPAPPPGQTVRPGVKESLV

CC(C)C[C@H](NC(=O)[C@H](CCCCN)NC(=O)CNC(=O)[C@H](CCCCN)NC(=O)[C@@H]1CSSC[C@@H]2NC(=O)[C@H](CCCCN)NC(=O)[C@H](CC(=O)O)NC(=O)[C@H](CC(N)=O)NC(=O)[C@H](CCCCN)NC(=O)[C@@H]3CCCN3C(=O)[C@H](CC(N)=O)NC(=O)[C@@H]3CSSC[C@H](NC(=O)[C@H](C(C)C)NC(=O)[C@H](CC(C)C)NC(=O)[C@H](CC(N)=O)NC(=O)[C@H](C)NC(=O)[C@H](CSSC[C@H](NC(=O)[C@H](CC(=O)O)NC(=O)[C@H](CC(N)=O)NC(=O)CN)C(=O)N[C@@H](CC(C)C)C(=O)NCC(=O)N[C@@H](Cc4ccccc4)C(=O)N[C@@H](Cc4c[nH]c5ccccc45)C(=O)N[C@@H](CO)C(=O)N[C@@H](C)C(=O)N3)NC2=O)C(=O)N[C@@H](CO)C(=O)N[C@@H](CO)C(=O)N[C@@H](CCCCN)C(=O)N[C@@H](Cc2c[nH]cn2)C(=O)N[C@@H](CCCCN)C(=O)N[C@@H](Cc2c[nH]c3ccccc23)C(=O)N1)C(=O)O [Hs1a]
IC50 [1]: 107 nM | IC50 [2]: 82.2 nM | IC50 ([3]; QPatch 16x automated whole-cell patch-clamp, holding potential -105 mV, five concentrations (2 nM to 10 μM), 0.1% BSA, pH 7.4, ~22 °C, each point average of 3–11 cells): > 3000 nM | inhibition of NaV1.5 [3, 12]: did not inhibit | affinity for neuronal sodium channels ([4]; ~22 °C): low nanomolar affinity | IC50 range for neuronal NaV channels ([4]; NaV1.1, NaV1.2, NaV1.3, NaV1.6, NaV1.7): low nanomolar range | IC50 ([5]; QPatch 16x automated whole-cell patch-clamp, holding potential -75 mV, five concentrations (2 nM to 10 μM), 0.1% BSA, pH 7.4, ~22 °C, each point average of 3–11 cells): > 3000 nM | inhibition of NaV1.4 [5, 12]: did not inhibit | IC50 [6]: 19.4 nM

Cy7.5@GNDCLGFWSACNPKNDKCCANLVCSSKHKWCKGKL (disulfide) [Hs1a-FL, NIR-labeled version of Hs1a, Hs1a conjugated to Cy7.5 dye]
radiant efficiency, brain ([7]; i.v. 4 nmol in 100 μL PBS, IVIS, ex 710/45 nm, em 800–820 nm, mean ± SD, n = 3, PBS group 0.001 ± 0.0005 × 10^7): 0.2 ± 0.1 × 10^7 [p/s/cm^2/sr]/[μW/cm^2] | radiant efficiency, liver ([7]; i.v. 4 nmol in 100 μL PBS, IVIS, ex 710/45 nm, em 800–820 nm, mean ± SD, n = 3, PBS group 0.002 ± 0.001 × 10^7): 3.0 ± 2.0 × 10^7 [p/s/cm^2/sr]/[μW/cm^2] | radiant efficiency, kidney ([7]; i.v. 4 nmol in 100 μL PBS, IVIS, ex 710/45 nm, em 800–820 nm, mean ± SD, n = 3, PBS group 0.005 ± 0.004 × 10^7): 1.4 ± 1.1 × 10^7 [p/s/cm^2/sr]/[μW/cm^2] | liver accumulation ([7]; mouse, i.v. 4 nmol): high liver accumulation | visibility / accumulation in resected sciatic nerves ([8]; i.v. 4 nmol Hs1a-FL alone, epifluorescence): clearly visible | radiant efficiency of resected sciatic nerves ([8]; i.v. Hs1a-FL 4 nmol (45 μM in 100 μL PBS), with or without Hs1a 12 nmol (120 μM), IVIS, ex 710/45 nm, em 800–820 nm, mean ± SD, n = 3 mice, Hs1a-FL vs co-injection unpaired t test p < 0.001): 1.6 ± 0.3 × 10^5 [p/s/cm^2/sr]/[μW/cm^2] | presence of Hs1a-FL signal in sciatic nerve by confocal microscopy [9]: confirmed the presence of Hs1a-FL signal | binding to NaV1.7 on the surface of human and mouse nerves ([10]; abstract statement): specific and stable binding | binding to NaV1.7 channels in vivo ([10]; post-intravenous injection, mouse, blocked by excess dose of unlabeled Hs1a): specifically bind to NaV1.7 channels in vivo | nerve-to-muscle contrast ([11]; epifluorescence visualization of sciatic mouse nerves, abstract statement): favorable nerve-to-muscle contrast | nerve-to-muscle ratio ([11]; i.v. Hs1a-FL 4 nmol with or without Hs1a 12 nmol (block), 30 min post-injection, epifluorescence, mean ± SD, PBS 2.90 ± 2.76): 4.83 ± 8.73 and ~ 4
